In the NIST ThermoML archive (doi:10.1021/je060068f):
± gives the expanded uncertainty stated by the source.

conditions: Liquid; pulse-heating method

| Compound | Critical pressure | Critical temperature |
| --- | --- | --- |
| CCCCCOC(=O)c1ccccc1C(=O)OCCCCC | 1430 ± 50 kPa | 811 ± 9 K |
| CCCOC(=O)c1ccccc1C(=O)OCCC [1,2-benzenedicarboxylic acid dipropyl ester] | 1900 ± 70 kPa | 784 ± 9 K |
| CCCCOC(=O)c1ccccc1C(=O)OCCCC [dibutyl phthalate] | 1660 ± 60 kPa | 797 ± 9 K |
| CCCCCCCCCOC(=O)c1ccccc1C(=O)OCCCCCCCCC [dinonyl phthalate] | 1020 ± 40 kPa | 858 ± 9 K |
| CCCCCCCCCCOC(=O)c1ccccc1C(=O)OCCCCCCCCCC [didecyl phthalate] | 940 ± 30 kPa | 870 ± 10 K |
| CCCCCCOC(=O)c1ccccc1C(=O)OCCCCCC [dihexyl phthalate] | 1340 ± 50 kPa | 817 ± 9 K |
| CCOC(=O)c1ccccc1C(=O)OCC [diethyl phthalate] | 2260 ± 80 kPa | 776 ± 9 K |
| CCCCC(CC)COC(=O)c1ccccc1C(=O)OCC(CC)CCCC (centres undefined) [bis(2-ethylhexyl) 1,2-benzenedicarboxylate] | 1070 ± 40 kPa | 835 ± 9 K |
| CCCCCCCOC(=O)c1ccccc1C(=O)OCCCCCCC [diheptyl phthalate] | 1240 ± 40 kPa | 830 ± 9 K |
| CCCCCCCCOC(=O)c1ccccc1C(=O)OCCCCCCCC [dioctyl 1,2-benzenedicarboxylate] | 1080 ± 40 kPa | 840 ± 9 K |
| COC(=O)c1ccccc1C(=O)OC [dimethyl 1,2-benzenedicarboxylate] | 2770 ± 100 kPa | 772 ± 9 K |
| CCCCCCCCCCCOC(=O)c1ccccc1C(=O)OCCCCCCCCCCC [diundecyl phthalate] | 890 ± 30 kPa | 886 ± 10 K |
